According to patent US20160311795A1, “PYRIMIDINE DIAMINE DERIVATIVES AS INHIBITORS OF CYTOSOLIC HSP90” (CALASIA PHARMACEUTICALS, INC., priority 2012, published 2016):

Tests used:
U251MG cells = assay: Mitochondrial stress response, oxygen consumption rate (OCR); assay type: cell-based, human; conditions: FCCP as inducer of stress
Protocol: In further experiments, the effect of SBI-0640725 on mitochondrial stress response in U251MG cells was determined by measuring the mitochondrial oxygen consumption rate (OCR). The OCR was measured in real time, both before, and after treating U251 MG cells with increasing concentrations of SBI-0640725. The time of compound addition is indicated in FIG. 15A by the vertical line labeled D. Mitochondrial bioenergetics stress was determined by treating the cells sequentially with 0.125 mg/ml oligomycin (OA; vertical line O), […] carbonyl cyanide-4-(trifluoromethoxy)phenylhydrazone (FCCP; vertical line F) and […] rotenone (vertical line R) while continuing OCR measurement. Oligomycin (OA) generates mitochondrial stress by inhibiting ATP synthase and FCCP uncouples mitochondrial oxidative phosphorylation. The OCR data shown in FIG. 15A is presented in FIG. 15B after normalization using cell protein concentration, and subtracting extra-mitochondrial respiration, as determined by the respiration observed upon addition of rotenone. These experiments tested whether SBI-0640725 could inhibit the ability of mitochondria to compensate for these stressors. […] FCCP dissipates the electrochemical gradient that drives ATP synthesis. Thus, in order to maintain the membrane potential, mitochondria needs to increase the flow of electrons, thereby reflecting an increase in the OCR.

U251MG = assay: Cell viability / efficacy in GBM cells; assay type: cell-based, human
Protocol: (§1) The effect of SBI-0640725 on cell viability was determined by measuring cellular dehydrogenase activity (U251MG and MBA-MD-231 cells) or by measuring ADP levels (HepG2) after treating cells for 72 hours with increasing concentrations of SBI-0640725. To measure dehydrogenase activity, CCK-8 kit reagent (Dojindo) was added to the wells and incubated for 2 hours, after which absorbance was measured at 450 nm using a Synergy HT micro-titer plate reader (Biotek). To measure ADP levels, ADP-GLO reagent (Life Technologies) was added to the wells, and luminescence was measured after a 30 minute incubation using a POLARstar Omega micro-titer plate reader (BMG).
(§2) The table below summarizes efficacy of SBI-0640725 in various cancer cell lines, including U251MG, MDA-MB-231, and HepG2, using ADP-GLO assay described above. As used herein “efficacy” (EC50) is the concentration of a compound that produces half-maximal response in a cellular assay.

HepG2 = assay: Cell viability / efficacy in liver cancer cells, ADP-GLO; assay type: cell-based
Protocol: as §1, §2

Akt1 in MBA-MD-231 cells = assay: Hsp90 client protein stability, Akt1 ELISA; assay type: cell-based; conditions: MBA-MD-231, 48 hours, increasing concentrations
Protocol: In further experiments, the effect of SBI-0640725 on the stability of Hsp90 client proteins was analyzed. […] Akt1 protein levels were measured in cell lysates using ELISA.

EGFR in U251MG cells = assay: Hsp90 client protein stability, EGFR; assay type: cell-based, human; conditions: 48 hours, increasing concentrations
[1] = tested on: Caspase 3/7 activity in U251MG cells; assay: Cellular Caspase-3/7 luminescence assay; assay type: cell-based, human; conditions: 72 hours
Protocol: Further, the effect of SBI-0640725 on cellular caspase levels was also quantitated in U251MG, MBA-MD-231 and HepG2 cells. Each cell type was treated with increasing concentrations of SBI-0640725 for 72 hours. Quantification of total cellular Caspase-3 and 7 activity was accomplished using a Caspase-3/7 luminescence assay kit (Promega) according to the manufacturer's recommendations, and analyzed with a POLARstar Omega micro-titer plate reader (BMG). […] Caspase activity is a marker for apoptotic cell death.

LnCaP cells = assay: Tumor cell viability, ATPlite; assay type: cell-based; conditions: Homo sapiens, 72 h, read-out: EC50, decrease in cell viability
Protocol: (§3) Akt1 levels in the cell lysates were measured using kits from R&D Systems used according to the manufacturer's recommendations. Cell lysates were assayed at a 1:24 dilution for the Akt1 ELISA. The Akt1 concentrations in the cell lysates were extrapolated from the standard curve and corrected for lysate protein concentration. Akt1 levels were determined using a micro-titer plate reader (Model #Synergy HT; BioTek Inc., Winooski, Vt.). LnCaP cells were cultured in culture medium and passaged after lifting using 0.25% trypsin/EDTA. LnCaP cells were seeded into a 96 well tissue culture plate at 1.3×10^4 cells per well in a volume of 100 uL of culture medium. […] Caspase 3/7 activity was measured using a Homogeneous Caspase 3/7 Assay Kit used according to the manufacturer's recommendations. In detail, an equal volume of Caspase 3/7 Assay Kit reagent was added to the wells and fluorescence readings (Ex/Em 485/528) were taken after 3, 6, and 23 h at ambient temperature using a micro-titer plate reader. […] Fluorescence intensities of the dilutions were measured to obtain a standard curve. […] Cell viability was measured with the ATPlite Kit used according to the manufacturer's recommendation. […] Cultures were mixed at 1,000 rpm for 2 min in the dark and luminescence quantification was accomplished using a micro-titer plate reader (POLARstar Omega micro-titer plate reader; BMG Labtech).

Caspase-3 in LnCaP cells = assay: Caspase 3/7 induction; assay type: cell-based, human; conditions: 10 μM concentration
Protocol: as §3

Row | Compound | mitochondrial stress response (OCR) (U251MG cells) | cell viability (U251MG; 72 hours, dehydrogenase activity (CCK-8)) | EC50 (U251MG; Homo sapiens, U-251, GBM, ADP-GLO) [nM] | cell viability (HepG2; HepG2, 72 hours, ADP levels (ADP-GLO)) | EC50 (HepG2; Homo sapiens, Liver Cancer, HepG2, ADP-GLO) [nM] | levels of the client protein Akt1 (Akt1 in MBA-MD-231 cells) | level of the client protein EGFR (EGFR in U251MG cells) | Caspase 3/7 activity [1] | EC50 (LnCaP cells) [nM] | induction of Caspase-3 (Caspase-3 in LnCaP cells)
1 | COc1c(C)cnc(CN(CCc2ccc(F)cc2)c2cc(Cl)nc(N)n2)c1C [SBI-0640725] | significantly inhibit the ability of mitochondria to compensate for stress | reduction in cell viability | 880 | reduction in cell viability | 1300 | progressive decrease in the levels of the client protein Akt1 | observed to decrease | increase in Caspase 3/7 activity |  | 
2 | COc1c(C)cnc(CN(CCc2ccccc2)c2cc(Cl)nc(N)n2)c1C [SBI-0639353, 6-Chloro-N4-((4-methoxy-3,5-dimethylpyridin-2-yl)methyl)-N4-phenethylpyrimidine-2,4-diamine] |  |  |  |  |  |  |  |  | 3800 | induction of Caspase-3
